Assay results as given in patent US9884806B2, “Cyclic vinylogous amides as bromodomain inhibitors” (ICAHN SCHOOL OF MEDICINE AT MOUNT SINAI, priority 2013, dated 2018).
Like-named read-outs stand apart in the source and are kept apart here.

How the values were obtained:
[1] = test system: NO release in RAW264.7 cells; test: LPS-stimulated nitric oxide (NO) release in murine macrophage RAW264.7 cells (Griess reaction); type: cell-based; conditions: Mus musculus, read-out: IC50 in inhibition of LPS-induced NO release
Method: LPS-Stimulated Nitric Oxide (NO) Release in Murine Macrophage RAW264.7 Cells
RAW264.7 cells was cultivated in DMEM supplemented with 10% FBS at 37° C. in a humidified atmosphere of 5% CO2. Cells in 96-well plates (0.1 ml, 3×10^5 cells/ml) were treated with the test compounds. After 30 min, all supernatants were removed and cells were treated with LPS (1 μg/ml) and the test compounds. After 24 hours, the level of nitrite was measured using Griess reaction G2930 (Promega Corp., Madison, Wis.) [see Bredt and Snyder, Ann Rev Biochem 63, 175-195 (1994)]. The test compounds dissolved in DMSO were diluted with culture medium to concentrations from 0.28 to 50,000 nM. The final concentration of DMSO was adjusted to 0.05% (v/v). The nitrite production was measured by spectrophotometry at 520 nm using EnVison 2104 Multilabel Reader (PerkinElmer, Inc., Waltham, Mass.). Each experiment was performed at least in triplicate and plotted using Prism.

[2] = test system: mRNA transcript levels of cytokines IL-6, IL-1β and TNFα in RAW264.7 cells; test: LPS-induced transcriptional activation of cytokines in murine macrophage cells (quantitative PCR); type: cell-based; conditions: Mus musculus
Method: LPS-Induced Transcriptional Activation of Cytokines in Murine Macrophage Cells RAW264.7 cells were cultivated with or without a treatment of the compounds as described above. Total RNA was isolated the cells using TRIzol reagent (Gibco, Grand Island, N.Y.) for homogenization. The concentration and integrity of RNA were determined by measuring absorbance at a 260 nm/280 nm ratio. Quantitative PCR was performed to determine the mRNA transcript levels of cytokines IL-6, IL-1β and TNFα with specific primers for these target genes. Each experiment was performed at least in triplicate, and plotted using Prim, and an IC50 value was calculated.

[3] = target: T1, first bromodomain (BrD1) of human BRD4 (Homo sapiens, UniProt O60885); test: Fluorescence anisotropy binding assay (competition with FITC-labeled MS417 probe); conditions: FITC-MS417 probe 80 nM, PBS pH 7.4, 1 hour, 25° C., read-out: BRD4_1 IC50
T1 construct: the first bromodomain (BrD1) of human BRD4; poly-His (cleaved yes); made in house
Procedure, shortened: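 Competitive fluorescence anisotropy in PBS pH 7.4: 80 nM FITC-MS417 probe, 0.25 to 1 μM tag-cleaved BrD1, titrated unlabeled ligand, 1 hour at 25° C. IC50 values were fitted and converted to Ki using a corrected Cheng-Prusoff equation assuming one-site competition.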

BRD4_2 = target: T2, BRD4_2 (Homo sapiens, UniProt O60885); test: Fluorescence anisotropy binding assay (competition with FITC-labeled MS417 probe), BRD4_2; conditions: FITC-MS417 probe 80 nM, PBS pH 7.4, 1 hour, 25° C.
T2 construct: contains two tandem bromodomains (BrD1 and BrD2)

[4] = Human, rat, and mouse microsome stability assay; type: in vitro ADME; conditions: Sprague-Dawley (rat), CD1 (mouse), pH 7.4, rat, and mouse liver microsomes, 0.5 μM compound, 0.25 mg/mL microsomal protein, 37° C., read-out: intrinsic clearance Clint
Method: Human, Rat, and Mouse Microsome Stability Assay
Human, rat, and mouse liver microsomal incubations were carried out at 37° C. with a final incubation volume of 135 μL. Human liver microsomes (mixed gender, Catalog No. H2610) were obtained from XenoTech. Rat liver microsomes (male Sprague-Dawley, Catalog No. 452501) were obtained from BD Gentest. Mouse liver microsomes (male CD1, Catalog No. 452701) were obtained from BD Gentest. Incubations were conducted using a test compound (initially dissolved in DMSO at […] concentration) concentration of 0.5 μM and 0.25 mg/mL microsomal protein in 50 mM phosphate buffer at pH 7.4. Time zero samples were prepared by transferring 13.5 μL of compound-microsomal mix to the quench plates containing 45 μL of quench solution made of 10 nM Buspirone (Sigma) or 50 nM Carbutamide (Princeton Bio) as internal standard in 1:1 methanol:acetonitrile. An aliquot of 1.5 μL Nicotinamide adenine dinucleotide phosphate reduced tetrasodium salt (NADPH) was also added to the time zero plates. The reaction was then initiated by the addition of 13.5 μL NADPH to the compound-microsomal mix. At each of the remaining time points (5, 10, 15, 20, 30, 45 and 60 min) 15 μL of incubation mixture was added to 45 μL of quench solution. Samples were centrifuged for 15-30 minutes at 3800 rpm. Samples were then pooled for 6 per group. An aliquot of 60 μL of supernatant was transferred to 96-well plate, and a 5 μL aliquot was injected and analyzed by LC-MS (Applied Biosystems API 5500 QTrap).

[5] = test system: IL-6 secretion in RAW264.7 cells; test: LPS-induced IL-6 secretion in murine macrophage RAW264.7 cells (ELISA); type: cell-based; conditions: LPS 1 μg/ml, 24 hours, mouse IL-6 ELISA
Method: LPS-Induced IL-6Secretion In Murine Macrophage Raw264.7 Cells RAW264.7 cells were cultivated in Dulbecco's modified Eagle medium (DMEM) (Hyclone, Logan, Utah) supplemented with 10% FBS (fetal bovine serum) (Hyclone, Logan, Utah) at 37° C. in a humidified atmosphere of 5% CO2. Cells in 96-well plates (0.1 ml, 3×10^5 cells/ml) were treated with the test compounds. After 30 min, all supernatants were removed and cells were treated with LPS (lipopolysaccharide) (1 μg/ml) (Sigma-Aldrich Chemical Co., St. Louis, Mo.) and compounds. After 24 hours, the supernatant was collected and mouse IL-6 protein level was measured using ELISA (enzyme-linked immunosorbent assay) (Thermo Scientific, Pittsburgh, Pa.). The compounds dissolved in DMSO were diluted with culture medium to concentrations from 0.28 to 50,000 nM. The final concentration of DMSO was adjusted to 0.05% (v/v). The assay was measured by an absorption reading at 570 nm using EnVison 2104 Multilabel Reader (PerkinElmer, Inc., Waltham, Mass.). Each experiment was performed at least in triplicate, and plotted using Prim, and an IC50 value was calculated.

[6] = test system: IL-8 expression in human basal-like breast cancer cells (BLBCs); test: ELISA assay assessing IL-8 expression in BLBCs; type: cell-based; conditions: read-out: IC50, inhibition of IL-8 expression
Method: ELISA Assay Assessing IL-8 Expression in BLBCs […] The following day upon cells adhesion to the plate bottom, all supernatants were carefully discarded followed by adding test compounds diluted in culturing medium. The test compounds dissolved in DMSO (Sigma-Aldrich Chemical Co., St. […] The final concentration of DMSO was adjusted to 0.05% (v/v). At the end of 24-hour incubation, all supernatants were carefully removed and stored at −80° C. if the subsequent steps would not be performed immediately. The Human IL-8 ELISA Ready-Set-Go! (2nd generation) is used (Catalog No. 88-8086) against the prepared samples. The samples along with the Standard Human IL-8 Recombinant Protein (prepared in duplicates in a 2-fold serial dilution from 250 pg/ml to 2 pg/ml) were incubated overnight for maximal sensitivity. The assay was measured by an absorption reading at 450 nm using EnVision 2104 Multilabel Reader (PerkinElmer, Inc., Waltham, Mass.). Each experiment was performed at least in duplicate and plotted using Prism. The curve fitting equation used was “log(inhibitor) vs. response variable slope (four parameters)”.

[7] = test system: primary human AML stem- and progenitor cells; conditions: cited from earlier work
[8] = RAW264.7 cells, LPS 1 μg/ml, 24 hours, nitrite by Griess reaction
[9] = RAW264.7 cells, LPS, quantitative PCR of mRNA transcript levels, read-out: IC50 in inhibition of transcriptional activation of the cytokines IL-6, IL-1β and TNFα
[10] = RAW264.7, read-out: IC50 in inhibition of transcriptional activation of the cytokines IL-6, IL-1β and TNFα
[11] = panel of human BLBC cells MDA-MB-435S, MDA-MB-231, BT-549, MDA-MB-157, HS578T, SUM1315, 24-hour incubation

| IC50 [1, 8] [nM] | IC50 [3] [nM] | IC50 (BRD4_2) [nM] | melting point [°C] | microsomal CLint at 0.5 μM [4] [µL/min/mg] | Compound | IC50 [2, 9] [nM] | further results |
| --- | --- | --- | --- | --- | --- | --- | --- |
| 100 to 5000 | > 10000 | > 10000 | 232 to 235 |  | CC1=C(Nc2cc(C(=O)O)ccc2Cl)CCCC1=O [Example 01-36, 4-chloro-3((2-methyl-3-oxocyclohex-1-en-1-yl)amino)benzoic acid] | 100 to 5000 |  |
|  | 1000 to 10000 | 1000 to 10000 | 259 to 263 | 25 to 250 | CC1=C(Nc2ccc3cc(C(=O)O)ccc3c2)CCCC1=O [Example 01-41, 6((2-methyl-3-oxocyclohex-1-en-1-yl)amino)-2-naphthoic acid] |  |  |
| 100 to 5000 | 1000 to 10000 | 1000 to 10000 |  |  | CC1=C(Nc2cc(C(=O)Nc3ccccc3C)ccc2Cl)CCCC1=O [Example 04-91, 4-chloro-3-((2-methyl-3-oxocyclohex-1-en-1-yl)amino)-N-(o-tolyl)benzamide] | 100 to 5000 |  |
| 100 to 5000 | < 1000 | 1000 to 10000 |  |  | CC1=C(Nc2ccc(C(=O)Nc3ccccc3C)cc2Cl)CCCC1=O [Example 05-15, 3-chloro-4-((2-methyl-3-oxocyclohex-1-en-1-yl)amino)-N-(o-tolyl)benzamide] | 100 to 5000 |  |
|  | < 1000 | < 1000 | 246 to 248 | 25 to 250 | CC1=C(Nc2cc(NS(=O)(=O)c3ccccc3C)ccc2Cl)CCCC1=O [Example 05-66, N-(4-chloro-3-((2-methyl-3-oxocyclohex-1-en-1-yl)amino)phenyl)-2-methylbenzenesulfonamide] |  |  |
|  | < 1000 | 1000 to 10000 | 248 to 250 | 25 to 250 | CC1=C(Nc2ccc(NS(=O)(=O)c3ccccc3C)cc2Cl)CCCC1=O [Example 05-68, N-(3-chloro-4-((2-methyl-3-oxocyclohex-1-en-1-yl)amino)phenyl)-2-methylbenzenesulfonamide] |  | IC50 [6, 11]: 100 to 1000 nM |
|  | < 1000 | > 10000 | 185 to 187 | 25 to 250 | CC1=C(Nc2cccc(NS(=O)(=O)c3ccccc3C)c2Cl)CCCC1=O [Example 05-70, N-(2-chloro-3-((2-methyl-3-oxocyclohex-1-en-1-yl)amino)phenyl)-2-methylbenzenesulfonamide] |  | IC50 [6, 11]: 100 to 1000 nM |
| 100 to 5000 | < 1000 | 1000 to 10000 |  |  | CC1=C(Nc2cccc(-c3cn(Cc4ccccc4)nn3)c2)CCC1=O [Example 06-04, 3-((3-(1-benzyl-1H-1,2,3-triazol-4-yl)phenyl)amino)-2-methylcyclopent-2-enone] | 100 to 5000 |  |
|  |  |  |  |  | Cc1sc2c(c1C)C(c1ccc(Cl)cc1)=N[C@@H](CC(=O)OC(C)(C)C)c1nnc(C)n1-2 [JQ1] |  | apoptosis in CD34+/CD38− and CD34+/CD38+ stem- and progenitor cells ([7]; all donors): induce apoptosis; growth-inhibition and apoptosis ([7]; primary human AML stem- and progenitor cells, including relapsed or refractory patients): leads to growth-inhibition and apoptosis |

| Compound | IC50 [1, 8] [nM] | IC50 [3] [nM] | IC50 (BRD4_2) [nM] | melting point [°C] | microsomal CLint at 0.5 μM [4] [µL/min/mg] | IC50 [2, 9] [nM] | further results |
| --- | --- | --- | --- | --- | --- | --- | --- |
| CC1=C(Nc2ccc(C(=O)Nc3ccccc3C)cc2Cl)CCC1=O [Example 04-20, 3-chloro-4-((2-methyl-3-oxocyclopent-1-en-1-yl)amino)-N-(o-tolyl)benzamide] | 100 to 5000 | < 1000 | 1000 to 10000 |  |  |  | IC50 [5]: 200 to 1000 nM; IC50 [2, 10]: 100 to 5000 nM |
| COc1ccc(NC(=O)Cc2cccc(NC3=C(C)C(=O)CCC3)c2)cc1 [Example 04-98, N-(4-methoxyphenyl)-2-(3-((2-methyl-3-oxocyclohex-1-en-1-yl)amino)phenyl)-acetamide] |  | > 10000 | > 10000 |  |  |  | IC50 ([1]; RAW264.7, 24 h): 100 to 5000 nM; IC50 [2, 10]: 100 to 5000 nM |
| CC1=C(Nc2cc(NS(=O)(=O)c3ccccc3C)ccc2Cl)CCC1=O [Example 05-57, N-(4-chloro-3-((2-methyl-3-oxocyclopent-1-en-1-yl)amino)phenyl)-2-methylbenzenesulfonamide] |  | < 1000 | < 1000 | 236 to 238 | 25 to 250 |  | IC50 ([6]; Homo sapiens, 24 h): 100 to 1000 nM |
